We go through two molecules from patent US12110299B2, “Thiazole derivatives and pharmaceutically acceptable salts thereof” (YUNGJIN PHARM. CO., LTD., priority 2018, dated 2024).

Each structure is given as a SMILES string.

The test system of test [1] is MDA-MB-468 cells. Description: Anti-proliferative effect on MDA-MB-468 cells, IC50 (MTT). Format: cell-based. The conditions noted are these: Homo sapiens, MDA-MB-468, 72 h.
Description: The compounds of the present invention were tested at different concentrations (from 1000 nM to 1 nM) to assess their ability for inhibiting the proliferation of MDAMB-468 cells. Cells were cultivated in RPMI 1640 (Welgene)+10% FBS (Gibco)+1% penicillin/streptomycin (Gibco) and cultured at 37° C. in a humidified chamber in the presence of 5% C02.
MDA-MB-468 cells cultured in 96-well cell culture plates were treated with the compounds of the present invention and incubated for 72 hours.
In test [2] the target is recombinant purified human CDK7 kinase (Homo sapiens (Human), UniProt P50613). Description: CDK7 kinase-inhibitory activity, ADP-Glo kinase assay. The class given is biochemical. The note with it: ATP 90 µM, MBP substrate, 2 hours at 30° C., read-out: CDK7 inhibition(IC50 nM). As to the method:
Representative compounds of the present invention were assayed in vitro for CDK7 kinase-inhibitory activities using ADP-Glo platform. In detail, CDK7 kinase-inhibitory activity was measured using recombinant purified human CDK7 kinase (ThermoFisher, PV3868) and ADP Glo kinase assays kit (Promega, V9102). CDK7 kinase was diluted with 1× kinase reaction buffer (40 mM Tris-C1, pH 7.5, 20 mM MgCl2, 0.1 mg/ml BSA and 50 [M DTT) and added to 96 well plates (final concentration of CDK7 per reaction: 50 ng). The compound was finally treated to be a 1% DMSO aqueous solution, and a substrate cocktail containing ATP (final concentration of 90 [M) and 0.2 μg/μl of MBP (Myelin basic protein) in a total of 25 μl of reaction mass was added to 96 well plates, thereby initiating an enzymatic reaction. After 2 hours of incubation (30° C.), equivalent volume (25 μl per reaction) of ADP Glo was added and incubated (30° C.) at room temperature for 60 minutes. The kinase detection reagent (50 μl per reaction) was then added and incubated (30° C.) at room temperature for 30 minutes. The kinase activity was measured by chemiluminescence method according to ADP Glo Kanease Assay Kit instruction manual, and the CDK7-inhibitory activity of the compounds according to the present invention was calculated. The result analysis of each compound was performed using Microsoft Excel, and IC50 values were calculated by Prism software.

In test [3] the target is CDK7 (Homo sapiens (Human), UniProt P50613). Nature of the test: scanMAX Kinase Assay Panel, CDK7. Format: binding. The conditions noted are these: read-out: % inhibition at 1 uM CDK7, compound at 1 uM. The procedure:
(§1) The assay (scanMAX Kinase Assay Panel) was performed. […] Kinase Assay Panel contains a set of 468 kinases including CDK2, CDK5. The compounds were screened at 1 [M, and results for binding interactions are reported compared to control (%).

Test [4] deals with CDK2 (Homo sapiens (Human), UniProt P24941). Description: scanMAX Kinase Assay Panel, CDK2. The class given is binding. The note with it: read-out: % inhibition at 1 uM CDK2, compound at 1 uM. As to the method: as §1
Test [5] concerns HepG2 cells. Description: HepG2 cell viability assay (CCK-8). The class given is cell-based, human. The note with it: Homo sapiens, HepG2, 72 h.
Test [6] deals with CDK5 (Homo sapiens (Human), UniProt Q00535). Description: scanMAX Kinase Assay Panel, CDK5. The class given is binding. The note with it: read-out: % inhibition at 1 uM CDK5, compound at 1 uM. As to the method:
as §1

CDK7, sequence (P50613 whole entry): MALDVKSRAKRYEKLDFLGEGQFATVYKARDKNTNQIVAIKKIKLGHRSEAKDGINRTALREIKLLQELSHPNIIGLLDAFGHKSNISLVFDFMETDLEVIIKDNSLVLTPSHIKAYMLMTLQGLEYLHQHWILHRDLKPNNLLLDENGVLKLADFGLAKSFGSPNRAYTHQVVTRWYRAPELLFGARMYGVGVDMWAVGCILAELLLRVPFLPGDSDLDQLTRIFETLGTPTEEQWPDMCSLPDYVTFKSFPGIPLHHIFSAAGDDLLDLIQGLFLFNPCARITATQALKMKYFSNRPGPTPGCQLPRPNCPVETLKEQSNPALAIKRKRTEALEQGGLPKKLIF
recombinant purified human CDK7 kinase, sequence (P50613 whole entry): as above
recombinant purified human CDK7 kinase, sequence (P51946 whole entry partner): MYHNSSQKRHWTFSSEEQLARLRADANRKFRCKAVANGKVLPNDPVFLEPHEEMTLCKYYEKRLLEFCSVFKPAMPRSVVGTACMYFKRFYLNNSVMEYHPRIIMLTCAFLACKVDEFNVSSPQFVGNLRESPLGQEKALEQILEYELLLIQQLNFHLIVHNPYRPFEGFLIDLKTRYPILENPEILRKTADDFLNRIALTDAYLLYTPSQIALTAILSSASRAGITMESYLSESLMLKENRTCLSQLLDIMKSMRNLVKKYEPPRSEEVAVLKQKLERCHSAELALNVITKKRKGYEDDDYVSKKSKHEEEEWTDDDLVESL
recombinant purified human CDK7 kinase, sequence (P51948 whole entry partner): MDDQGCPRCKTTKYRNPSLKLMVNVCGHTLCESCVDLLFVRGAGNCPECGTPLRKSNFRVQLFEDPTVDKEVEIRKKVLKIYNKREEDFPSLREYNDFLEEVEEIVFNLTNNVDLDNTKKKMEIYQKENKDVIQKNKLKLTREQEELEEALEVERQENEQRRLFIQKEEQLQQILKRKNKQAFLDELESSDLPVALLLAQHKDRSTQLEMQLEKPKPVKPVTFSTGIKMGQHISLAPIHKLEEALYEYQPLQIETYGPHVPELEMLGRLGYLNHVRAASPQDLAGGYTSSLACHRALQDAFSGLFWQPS
CDK5, sequence (Q00535 whole entry): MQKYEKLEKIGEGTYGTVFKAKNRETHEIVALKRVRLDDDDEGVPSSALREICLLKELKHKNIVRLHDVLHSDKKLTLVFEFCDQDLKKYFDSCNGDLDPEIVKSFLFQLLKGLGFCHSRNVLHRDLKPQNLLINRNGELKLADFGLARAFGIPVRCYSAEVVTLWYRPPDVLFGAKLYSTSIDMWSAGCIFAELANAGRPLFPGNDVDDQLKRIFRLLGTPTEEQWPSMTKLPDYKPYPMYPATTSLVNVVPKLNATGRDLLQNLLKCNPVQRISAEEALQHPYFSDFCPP

Broadly, the IC50 is the concentration needed to halve the response being measured. By inhibition is commonly meant how much of the control response was suppressed. In the case of `C[C@H](C(=O)Nc1ncc(C(F)(F)F)s1)c1cccc(-c2cnc(NC(=O)/C=C/CN(C)C)c(C#N)c2)c1` [Example 101, (S,E)-N-(3-cyano-5-(3-(1-oxo-1-((5-(trifluoromethyl)thiazol-2-yl)amino)propan-2-yl)phenyl)pyridin-2-yl)-4-(dimethylamino)but-2-enamide], the values for the IC50 in test [1], in test [2] and in test [5] were 30 nM, 7 nM and 5 nM, respectively. Besides, the inhibition at 1 µM in test [3] turned out to be 99%; in test [4] it was 26%; in test [6], 22%.

On to `CCc1cnc(NC(=O)[C@@H](C)c2cccc(-c3cnc(NC(=O)/C=C/CN(C)C)c(C#N)c3)c2)s1` [Example 121, (S,E)-N-(3-cyano-5-(3-(1-((5-ethylthiazol-2-yl)amino)-1-oxopropan-2-yl)phenyl)pyridin-2-yl)-4-(dimethylamino)but-2-enamide], for which the half-inhibitory concentration (IC50) in test [1] came out at 23 nM; in test [2], 7 nM; in test [5], 3 nM. For the same molecule, the inhibition at 1 µM in test [3] worked out at 99%; in test [4], 20%; in test [6], 30%.
